Where “and” joins values, the source holds several entries; their conditions need not be identical. Equal entries are not always repeated.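 Briefly, cells in 96-well plates were exposed to five compound concentrations for 48 h, and endpoints were estimated by linear interpolation. GI50: concentration for 50% inhibition of growth.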 Calls of active or inactive are those of the source. Cut-off read from the data, not from the text of the source: active = GI50 up to about 1.1 µM and inactive = higher. Where a SMILES comes first, the peptide text is derived from it. Peptide text beside a SMILES is read from it. [ ]: non-standard residue; d: D form. The star is where a group is joined. ξ: configuration not given here. ξD = NC(CC(=O)O)C(=O)O; Ac3c = NC1(C(=O)O)CC1; Boc = CC(C)(C)OC(=O)*; OBn = c1ccc(CO*)cc1
Assays:
Experiment in all cases: inhibition of tumour cell growth, NCI panel, 48 h
CAKI-1 = tested on: CAKI-1
SF-295 = tested on: SF-295
HCT-15 = tested on: HCT-15
UACC-257 = tested on: UACC-257
SN12C = tested on: SN12C
SNB-19 = tested on: SNB-19
M14 = tested on: M14
KM12 = tested on: KM12
LOX IMVI = tested on: LOX IMVI
MDA-N = tested on: MDA-N
OVCAR-5 = tested on: OVCAR-5
RPMI-8226 = tested on: RPMI-8226
ACHN = tested on: ACHN
786-0 = tested on: 786-0
SF-268 = tested on: SF-268
NCI-H522 = tested on: NCI-H522
UO-31 = tested on: UO-31
HOP-62 = tested on: HOP-62
Malme-3M = tested on: Malme-3M
DLD-1 = tested on: DLD-1

| Structure (SMILES) | GI50 (CAKI-1) | GI50 (SF-295) | GI50 (HCT-15) | GI50 (UACC-257) | GI50 (SN12C) | GI50 (SNB-19) | GI50 (M14) | GI50 (KM12) | GI50 (LOX IMVI) | GI50 (MDA-N) | GI50 (OVCAR-5) | GI50 (RPMI-8226) | GI50 (ACHN) | GI50 (786-0) | GI50 (SF-268) | GI50 (NCI-H522) | GI50 (UO-31) | GI50 (HOP-62) | GI50 (Malme-3M) | GI50 (DLD-1) |
| --- | --- | --- | --- | --- | --- | --- | --- | --- | --- | --- | --- | --- | --- | --- | --- | --- | --- | --- | --- | --- |
| CC(=O)CC1CCC(=O)/C=C/C(=O)OC(CC(C)=O)CCC(=O)/C=C/C(=O)O1 (stereo not drawn) | 6.53 µM (inactive) | 13.6 µM (inactive) | 2.1 µM | 15.5 µM (inactive) | 8.55 µM (inactive) | 19.8 µM (inactive) | 3.7 µM (inactive) | 20.8 µM (inactive) | 18.6 µM (inactive) | 9.53 µM (inactive) | 17.6 µM (inactive) | 2.9 µM (inactive) | 3.44 µM (inactive) | 5.15 µM (inactive) | 25.9 µM (inactive) | 1.14 µM (inactive) | 12.6 µM (inactive) | 23.3 µM (inactive) | 2.43 µM (inactive) | – |
| COc1ccc2[nH]cc([C@@H]3C4CCC(C4)[C@H]3NCc3cccc(CN[C@H]4C5CCC(C5)[C@@H]4c4c[nH]c5ccc(OC)cc45)c3)c2c1 | 1.6 µM (inactive) and 1.79 µM (inactive) | 1.45 µM (inactive) and 1.66 µM (inactive) | 0.791 µM and 0.998 µM | 1.38 µM (inactive) and 1.64 µM (inactive) | 1.1 µM (active) and 1.51 µM (inactive) | 1.53 µM (inactive) and 1.65 µM (inactive) | 640 nM (active) and 600 nM (active) | 463 nM (active) and 643 nM (active) | 244 nM (active) and 235 nM (active) | 1.15 µM (inactive) and 933 nM (active) | 1.55 µM (inactive) and 1.71 µM (inactive) | 531 nM (active) and 369 nM (active) | 1.76 µM (inactive) and 1.16 µM (inactive) | 731 nM (active) and 708 nM (active) | 1.53 µM (inactive) and 1.47 µM (inactive) | 1.5 µM (inactive) and 1.17 µM (inactive) | 1.36 µM (inactive) and 1.52 µM (inactive) | 1.62 µM (inactive) and 1.6 µM (inactive) | 1.86 µM (inactive) and 1.88 µM (inactive) | – |
| CC(C)(O)CO/N=C1\C(=C2\C(=O)Nc3ccccc32)Nc2ccccc21 | 0.112 µM (active) | 2.52 µM (inactive) | 0.324 µM | 4.49 µM (inactive) | 12 µM (inactive) | 4.24 µM (inactive) | 0.474 µM (active) | < 0.01 µM (active) | 0.583 µM (active) | 12.2 µM (inactive) | 2.61 µM (inactive) | 1.97 µM (inactive) | 0.426 µM (active) | 10.7 µM (inactive) | 2.33 µM (inactive) | 1.87 µM (inactive) | 0.348 µM (active) | 2.1 µM (inactive) | 4.3 µM (inactive) | – |
| Cc1ccc(S(=O)(=O)NC(=O)C#CCOC2CCCCO2)cc1 (stereo not drawn) | > 100 µM (inactive) | > 100 µM (inactive) | > 100 µM | > 100 µM (inactive) | > 100 µM (inactive) | > 100 µM (inactive) | > 100 µM (inactive) | – | > 100 µM (inactive) | – | > 100 µM (inactive) | > 100 µM (inactive) | > 100 µM (inactive) | > 100 µM (inactive) | – | – | > 100 µM (inactive) | – | > 100 µM (inactive) | > 100 µM (inactive) |
| COc1cc(Nc2cnc3cc(C(F)(F)F)ccc3n2)cc(OC)c1OC | – | > 100 µM (inactive) | > 100 µM | > 100 µM (inactive) | > 100 µM (inactive) | > 100 µM (inactive) | – | – | > 100 µM (inactive) | – | > 100 µM (inactive) | > 100 µM (inactive) | > 100 µM (inactive) | > 100 µM (inactive) | > 100 µM (inactive) | – | > 100 µM (inactive) | > 100 µM (inactive) | > 100 µM (inactive) | > 100 µM (inactive) |
| O=C(Nc1ccccc1C(=O)NC(=O)c1ccccc1NC(=O)c1ccccc1)c1ccccc1 | 10.6 µM (inactive) | 10.8 µM (inactive) | 16.9 µM | 1.86 µM (inactive) | 4.51 µM (inactive) | 7.36 µM (inactive) | – | 1.58 µM (inactive) | 2.24 µM (inactive) | – | 3.6 µM (inactive) | 1.46 µM (inactive) | 17.9 µM (inactive) | 12 µM (inactive) | 6.85 µM (inactive) | – | – | 12.4 µM (inactive) | 3.34 µM (inactive) | 12.5 µM (inactive) |
| C/C(=N/NC(N)=S)c1ccc[nH]1 | > 100 µM (inactive) | > 100 µM (inactive) | > 100 µM | > 100 µM (inactive) | > 100 µM (inactive) | > 100 µM (inactive) | > 100 µM (inactive) | > 100 µM (inactive) | > 100 µM (inactive) | > 100 µM (inactive) | > 100 µM (inactive) | > 100 µM (inactive) | > 100 µM (inactive) | > 100 µM (inactive) | > 100 µM (inactive) | > 100 µM (inactive) | > 100 µM (inactive) | > 100 µM (inactive) | > 100 µM (inactive) | – |
| CC1=C(C(=O)NCc2ccccc2)C(/C=C/c2ccccc2)C(C(=O)NCc2ccccc2)=C(C)N1 | > 100 µM (inactive) | > 100 µM (inactive) | > 100 µM | > 100 µM (inactive) | > 100 µM (inactive) | > 100 µM (inactive) | > 100 µM (inactive) | > 100 µM (inactive) | > 100 µM (inactive) | – | > 100 µM (inactive) | > 100 µM (inactive) | > 100 µM (inactive) | > 100 µM (inactive) | > 100 µM (inactive) | – | > 100 µM (inactive) | > 100 µM (inactive) | > 100 µM (inactive) | > 100 µM (inactive) |
| COc1c(I)c(OC)c2c(c1I)O[C@@H]1OCC[C@H]21 | 0.098 µM (active) | 38.2 µM (inactive) | 35.6 µM | 26.1 µM (inactive) | 31.3 µM (inactive) | 77.1 µM (inactive) | 24.9 µM (inactive) | 29.7 µM (inactive) | 32.4 µM (inactive) | – | 41.1 µM (inactive) | 19.7 µM (inactive) | 17.3 µM (inactive) | 34.8 µM (inactive) | – | – | 22.4 µM (inactive) | 17.4 µM (inactive) | 34 µM (inactive) | > 100 µM (inactive) |
| CCCCOC(=O)NC(=O)c1cn(CCCOC(=O)CCCCCCCCC(=O)OCCCn2cc(C(=O)NC(=O)OCCCC)c(=O)[nH]c2=O)c(=O)[nH]c1=O | – | > 100 µM (inactive) | > 100 µM | > 100 µM (inactive) | > 100 µM (inactive) | > 100 µM (inactive) | > 100 µM (inactive) | > 100 µM (inactive) | > 100 µM (inactive) | – | > 100 µM (inactive) | > 100 µM (inactive) | > 100 µM (inactive) | > 100 µM (inactive) | > 100 µM (inactive) | – | > 100 µM (inactive) | > 100 µM (inactive) | > 100 µM (inactive) | > 100 µM (inactive) |
| O=C1C2C3C=C4c5ccccc5N(c5ccccc5)C4([C@@H]2C(=O)N1c1ccc(F)cc1)[C@H]1C(=O)N(c2ccc(F)cc2)C(=O)[C@@H]31 (stereo partly drawn) | – | > 100 µM (inactive) | > 100 µM | > 100 µM (inactive) | 82 µM (inactive) | > 100 µM (inactive) | > 100 µM (inactive) | > 100 µM (inactive) | > 100 µM (inactive) | – | > 100 µM (inactive) | > 100 µM (inactive) | > 100 µM (inactive) | > 100 µM (inactive) | 37.2 µM (inactive) | > 100 µM (inactive) | 20.9 µM (inactive) | – | > 100 µM (inactive) | > 100 µM (inactive) |
| C=C1CC2OC(=O)C(=C)C2C(O)C2C(=C)CCC12 (stereo not drawn) | 5.25 µM (inactive) | 10.9 µM (inactive) | – | 4.2 µM (inactive) | 5.73 µM (inactive) | 16.2 µM (inactive) | – | 10.8 µM (inactive) | – | – | 12.3 µM (inactive) | 2.81 µM (inactive) | 9.04 µM (inactive) | 13.4 µM (inactive) | 16.7 µM (inactive) | – | 16.1 µM (inactive) | – | 15 µM (inactive) | 10.1 µM (inactive) |
| CC(=O)NC(CS)C(=O)NC(CO)C(=O)NC(CO)C(=O)NC(Cc1c[nH]c2ccccc12)C(=O)N1CCCC1C(=O)NC(CO)C(=O)NC(Cc1c[nH]c2ccccc12)C(=O)NC(Cc1c[nH]cn1)C(=O)NC(CO)C(=O)NC(Cc1c[nH]c2ccccc12)C(=O)NCC(=O)NCC(=O)NC(C)C(=O)NC(CCC(N)=O)C(=O)NC(CCCCN)C(=O)NC(C)C(=O)NC(CCCNC(=N)N)C(=O)NC(CCCCN)C(N)=O (stereo not drawn) (Ac-CSSWPSWHSWGGAQKARK-NH2; configuration not given here) | 11.9 µM (inactive) | > 50 µM (inactive) | 41.3 µM | 10 µM (inactive) | 43 µM (inactive) | > 50 µM (inactive) | 23.2 µM (inactive) | 11.6 µM (inactive) | 46.3 µM (inactive) | 19.1 µM (inactive) | > 50 µM (inactive) | 39 µM (inactive) | 17.7 µM (inactive) | 10.1 µM (inactive) | 16.7 µM (inactive) | 20.5 µM (inactive) | > 50 µM (inactive) | > 50 µM (inactive) | 10.8 µM (inactive) | – |
| COC(=O)C1(NC(=O)C(CC(=O)OCc2ccccc2)NC(=O)OC(C)(C)C)CC1 (stereo not drawn) (Boc-[ξD](OBn)-[Ac3c]-OMe) | > 100 µM (inactive) | > 100 µM (inactive) | > 100 µM | > 100 µM (inactive) | > 100 µM (inactive) | > 100 µM (inactive) | > 100 µM (inactive) | > 100 µM (inactive) | > 100 µM (inactive) | > 100 µM (inactive) | > 100 µM (inactive) | > 100 µM (inactive) | > 100 µM (inactive) | > 100 µM (inactive) | > 100 µM (inactive) | > 100 µM (inactive) | > 100 µM (inactive) | > 100 µM (inactive) | > 100 µM (inactive) | – |

From ChEMBL document CHEMBL1201862, “PubChem BioAssay data set” (2004)
